Values quoted from earlier work, collected in US5935604A (Danbiosyst UK Limited, priority 1993, dated 1999).

How the values were obtained:
[1] = nasal
[2] = in vivo
[3] = man, single doses of 1 mg

Gentamicin
absorption with bioadhesive microsphere system [1]: increase the absorption

Cc1ncccc1C1CCCN1C (stereo not shown) [2-methyl nicotine]
side-effects on the heart (heart): reduced side-effects on the heart

CN1CCCC1c1cccnc1 (stereo not shown) [nicotine]
potential side effects [2]: sleep disturbances and nightmares can result | nicotine peak plasma levels (regular smokers of 15 or more cigarettes per day, daytime average): about 35 μg/l | dose of systemically available nicotine absorbed per cigarette (regular smokers, average): about 1 mg | interval between taking a puff and nicotine arriving in the brain (smoking a cigarette): 10 to 20 s | plasma nicotine level (two minutes after the first cigarette, 2 min): about 13 μg/l | rate of absorption ([3]; nasal): fast | time to maximum concentration ([3]; nasal): ≤ 10 min | differences for different nasal treatments [3]: No differences could be found
